Measured values from US20110021531A1, “OXAZOLE DERIVATIVES USEFUL AS INHIBITORS OF FAAH” (priority 2009, published 2011).

Key:
[1] = biological target: T1, human FAAH (Fatty Acid Amide Hydrolase) (Homo sapiens, UniProt O00519); test: FAAH enzyme assay on lysate of CHO cells expressing human FAAH; format: biochemical
T1 construct: The full length FAAH was subcloned into the mammalian expression vector, pcDEF.neo
T1 sequence (O00519 1-579): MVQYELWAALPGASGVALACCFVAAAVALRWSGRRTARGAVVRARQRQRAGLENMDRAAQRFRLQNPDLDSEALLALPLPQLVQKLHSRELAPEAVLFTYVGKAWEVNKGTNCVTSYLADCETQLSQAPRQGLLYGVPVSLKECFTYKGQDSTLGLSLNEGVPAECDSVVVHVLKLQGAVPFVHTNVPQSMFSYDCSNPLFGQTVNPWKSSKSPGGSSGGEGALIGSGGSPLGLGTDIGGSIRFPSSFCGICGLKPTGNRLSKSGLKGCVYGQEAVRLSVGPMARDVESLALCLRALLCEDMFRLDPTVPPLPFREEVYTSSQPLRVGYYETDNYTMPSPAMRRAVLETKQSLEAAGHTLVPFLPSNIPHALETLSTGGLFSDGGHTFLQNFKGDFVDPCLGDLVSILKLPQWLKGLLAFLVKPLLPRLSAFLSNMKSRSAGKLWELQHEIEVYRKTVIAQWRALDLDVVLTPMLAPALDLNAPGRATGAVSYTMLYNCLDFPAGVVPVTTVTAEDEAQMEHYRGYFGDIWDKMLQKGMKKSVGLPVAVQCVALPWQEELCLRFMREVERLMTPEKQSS
Source text: (§1) To assist in assay development stable cell lines for human, murine and rat full length FAAH were developed. Human FAAH cDNA (Accession No: NM_001441.1) was purchased from Origene (Rockville, Md.). The full length FAAH was subcloned into the mammalian expression vector, pcDEF.neo, using XbaI and EcoRI restriction sites and used for stable cell line generation.
CHO cells expressing FAAH were used to prepare either crude cell lysate or microsome fractions. To harvest cells, tissue culture media was decanted, the monolayer washed three times with Ca^++Mg^++ free PBS and cells recovered after […] in enzyme free dissociation media (Millipore Corp, Billerica, Mass.). Cells were collected by centrifuging at 2000 rpm for 15 min. and the cell pellet re-suspended with 50 mM HEPES (pH 7.4) containing 1 mM EDTA and the protease inhibitors aprotinin (1 mg/ml) and leupeptin (100 μM). The suspension was sonicated at 4° C. and the cell lysate recovered after centrifuging at 12,000×g (14,600 rpm, SS34 rotor) for 20 min at 4° C. to form a crude pellet of cell debris, nuclei, peroxisomes, lysosomes, and mitochondria; the supernatant or cell lysate was used for FAAH enzyme assay. In some cases, microsomes fractions enriched in FAAH were prepared by centrifuging the cell lysate further at 27,000 rpm (100,000×g) in SW28 rotor for 50 minutes at 4° C. The pellet containing FAAH-enriched microsomes was re-suspend in 50 mM HEPES, (pH 7.4) 1 mM EDTA, and any remaining DNA sheared by passage of material through a 23 gauge needle and aliquots of enzyme were store at −80° C. prior to use.
(§2) (American Radiolabeled Chemicals; 1 mCi/ml) with FAAH (Life Sciences (1995), 56, 1999-2005 and Journal of Pharmacology and Experimented Therapeutics (1997), 283, 729-734), Analytical. Biochemistry (2003), 318, 270-5. In addition, routine assays were performed monitoring hydrolysis of arachidonyl-7-amino-4-methylcoumarin amide (AAMCA) by following increase in fluorescence upon release of 7-amino 4-methyl coumarin (λEX=355 nm, (λEM=460 nm). Analytical. Biochemistry (2005). 343, 143-51
(§3) Assays are performed on either cell lysate or microsome fractions prepared as described or in whole cell format employing either the fluorescent substrate AAMCA (Cayman chemical, Ann Arbor, Mich.,) or ^3H-anandmaide ([ETHANOLAMINE-1-3H]American Radiolabeled Chemicals; 1 mCi/ml). The cell lysate or microsome assay is performed in Costar black wall, clear bottom plates by adding FAAH_CF10 (whole cell, cell lysate or microsome) in assay buffer (50 mM Phosphate, pH 8.0, 1 mM EDTA, 200 mM KCl, 0.2% glycerol, 0.1% fatty acid free BSA) to each well, followed by either DMSO or compound and allowed to incubate at 22-25° C. for fifteen minutes. AAMCA substrate was used to achieve a final concentration of 1 μM and reaction allowed to proceed at room temperature for 1-3 hours. Fluorescent release as a measure of FAAH activity was monitored by reading the plate in a CytoFluor Multiplate Reader (Ex: […]). Whole cell assay is conducted with cells harvested after rinsing tissue culture flasks three times with Ca^++Mg^++ free PBS, incubating for 10 min in Enzyme free dissociation media and centrifuging for 5 minutes at 1,000 rpm in table top centrifuge. Cells are resuspended in assay buffer at desired cell number in (4×10^4 cells/assay in 96-well format; 1×10^4 cells/assay in 384-well format) and assayed as described.
Alternatively, assays are performed using anandamide [ethanolamine 1-^3H] (specific activity of 10 Ci/mmol) diluted with cold anandamide to achieve a final assay concentration of 1 μM anandamide (˜50,000 cpm). Enzyme (CHO cell lysate, brain or liver homogenate) is incubated in assay buffer (50 mM Phosphate, pH 8.0, 1 mM EDTA, 200 mM KCl, 0.2% glycerol, 0.1% fatty acid free BSA) with inhibitor at 25° C. for 30 minutes. The reaction was terminated by addition of 2 volumes of chloroform:methanol (1:1) and mixed by vortexing. […]

[2] = biological target: T2, rat FAAH (Fatty Acid Amide Hydrolase) (Rattus norvegicus, UniProt P97612); test: FAAH whole cell assay, CHO cells expressing rat FAAH; format: cell-based
T2 sequence (P97612 1-579): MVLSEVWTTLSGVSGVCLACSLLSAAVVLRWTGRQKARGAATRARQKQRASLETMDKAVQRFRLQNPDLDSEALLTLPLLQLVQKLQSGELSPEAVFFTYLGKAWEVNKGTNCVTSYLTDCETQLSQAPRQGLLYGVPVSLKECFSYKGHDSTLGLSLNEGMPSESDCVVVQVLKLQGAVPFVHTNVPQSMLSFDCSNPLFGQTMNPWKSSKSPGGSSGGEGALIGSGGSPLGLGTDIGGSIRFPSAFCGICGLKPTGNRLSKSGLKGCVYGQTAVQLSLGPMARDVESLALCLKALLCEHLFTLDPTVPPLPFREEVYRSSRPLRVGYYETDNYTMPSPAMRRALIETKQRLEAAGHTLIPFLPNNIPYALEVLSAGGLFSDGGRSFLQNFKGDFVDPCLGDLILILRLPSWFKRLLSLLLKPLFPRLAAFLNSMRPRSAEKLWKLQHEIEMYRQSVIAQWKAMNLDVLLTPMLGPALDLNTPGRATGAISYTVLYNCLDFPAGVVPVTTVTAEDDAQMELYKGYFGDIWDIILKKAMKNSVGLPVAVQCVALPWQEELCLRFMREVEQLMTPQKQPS
Source text: as §1
(§4) Murine (accession number NM_010173) and Rat FAAH (accession number NM_024132) was amplified by reverse transcriptase polymerase chain reaction (RT-PCR) from brain cDNA (BD Biosciences, San Jose, Calif.) using primers 1 and 2 or primers 1 and 3 respectively (see Table). The resulting PCR product was ligated into pCR4 TOPO and DNA sequence confirmed. The full length murine FAAH was subcloned into the mammalian expression vector, pcDEFneo using either EcoRI (murine) or KpnI and EcoRI (rat) restriction sites. Chinese hamster ovary cells (CHO) were transfected following manufacturers protocol (AMAXA). Forty eight hours post transfection, cells were trypsinized and transferred to 96 well plates in Iscove's DMEM media supplemented with 2 mM Glutamine, 10% fetal calf serum, 1 mg/ml geneticin and HT Supplement (0.1 mM sodium hypoxanthine, 0.016 mM thymidine) in order to isolate single clones. Following selection in geneticin, individual clones were selected and FAAH activity was assessed using a whole cell fluorescent anandamide assay, modified from Ramarao et al (2005). Following removal of tissue culture media cells were dislodged following addition of Cellstripper (Mediatech, Inc. Manassas, Va.) and transferred to 96 well black clear bottom assay plate, centrifuged at 1,000 rpm for 3 mins and media removed and replaced with assay buffer (50 mM Iris pH8.0, 1 mM EDTA, 0.1% fatty acid free BSA). The reaction was initiated by addition of fluorescent substrate, AMC Arachidonoyl Amide (Cayman Chemical, Ann Arbor, Mich.) to 1 μM and reaction allowed to proceed for 2 hours at room temperature. Release of fluorescence was monitored in a CytoFluor Multiplate Reader. Cells expressing the highest amount of FAAH activity were selected for study with FAAH inhibitors.
as §2, §3

[3] = biological target: T1, human FAAH (Fatty Acid Amide Hydrolase); test: FAAH whole cell assay, CHO cells expressing human FAAH; format: cell-based
Source text: as §1, §4, §2, §3

SMILES	IC50 [1]	IC50 [2]	IC50 [3]
N#CC1(c2ccc(-c3nc(-c4ccc(F)cc4)oc3Sc3ccc(Cl)cn3)cn2)CC(O)C1 (stereo not drawn) [Ex 122, 1-(5-{5-[(5-Chloropyridin-2-yl)sulfanyl]-2-(4-fluorophenyl)-1,3-oxazol-4-yl}pyridin-2-yl)-3-hydroxycyclobutanecarbonitrile]	161 nM	146 nM	474 nM
CC(C)(O)c1ccc(-c2nc(Cc3ccc(F)cc3)oc2Sc2ccc(Cl)cn2)cn1 [Ex 123, 2-(5-{5-[(5-Chloropyridin-2-yl)sulfanyl]-2-(4-fluorobenzyl)-1,3-oxazol-4-yl}pyridin-2-yl)propan-2-ol]	74 nM	286 nM	510 nM
COC(=O)c1cnc(-c2nc(-c3ccc(F)cc3)oc2Sc2ccc(Cl)cn2)nc1 [Ex 124, Methyl 2-{5-[(5-chloropyridin-2-yl)sulfanyl]-2-(4-fluorophenyl)-1,3-oxazol-4-yl}pyrimidine-5-carboxylate]	11 nM	16 nM	98 nM

Second part, the compound after the results:

IC50 [1]	IC50 [2]	IC50 [3]	SMILES
93 nM	680 nM	2290 nM	CC(C)(O)c1ccc(-c2nc(-c3ccccn3)oc2Sc2ccc(F)cn2)cn1 [Ex 125]
140 nM	782 nM	1120 nM	CC(C)(O)c1ccc(-c2nc(-c3ccccn3)oc2Sc2ncc(Cl)cn2)cn1 [Ex 131]
